Two compounds from US20250352539A1, “COMBINATION THERAPY FOR TREATING CANCER” (AstraZeneca AB, priority 2022, published 2025) can be followed below.

A word on the AC50: it is the midpoint of the concentration-response curve, whichever way the signal moves. In general, IC50 refers to the concentration that gives 50% inhibition.

Format in all cases: cell-based
One assay deals with PC-9. Nature of the assay: 10-day Cell Titre Glo combination screen. To be noted: Homo sapiens; PC-9 lung; monotherapy; read-out: mono AC50. The source says:
(§1) The Highest Single Agent (HSA) model is used to determine a combination's synergy score (and is based simply on the intuition that if a combination's effect exceeds the effect level of each of its constituents, there must be some combination interaction). Mathematically, the HSA model describes simple superposition of the single agent curves:
(§2) where CX,Y are the concentrations of the X and Y compound, and IX and IY are inhibitions of the single agents at CX,Y. It is also useful to calculate a volume score (HSA Volume) between the data and the HSA surface to characterise the overall strength of combination effects. Empirically derived combination matrices are compared to their respective HSA additivity models constructed from experimentally collected single agent dose response curves. Summation of this excess additivity across the dose response matrix is referred to HSA Volume.
(§3) Potency shifting can also be scored using combination index (CI). For a chosen iso-effect level (ICut), CI is calculated as: […]
(§4) where (CX/ECX) for a particular data point is the ratio of the X compound's measured concentration to its effective concentration at the chosen effect level. The CI is a rough estimate of how much drug was needed in combination relative to the single agent doses required to achieve the chosen effect level. CI values in the range of 0.5-0.7 are typical for in vitro measurements of current clinical combinations. The CI error (σCI) is calculated using standard error propagation through the CI calculation based on the isobologram errors.
(§5) This combination screen was a 10-day assay using Cell Titre Glo as the readout for viability.
(§6) The assay was performed in 384 well plates, with 1 cell line and 4 drug-drug combinations per plate dosed in a 6×6 matrix. A day zero reading was measured to determine growth inhibition. GenedataScreener was used to input the raw values for every well, and the software was programmed to normalise the values to the day zero and DMSO control values.
(§7) The CellTiter-Glo® Luminescent Cell Viability Assay is a homogeneous method to determine the number of viable cells in culture based on quantitation of the ATP present, which signals the presence of metabolically active cells. It relies on the properties of a proprietary thermostable luciferase (Ultra-Glo™ Recombinant Luciferase), which generates a stable “glow-type” luminescent signal and improves performance across a wide range of assay conditions.
(§8) The following information was reported: Synergy scores (HSA); combination index values; AC50 (half-maximal activity concentration) monotherapy values.

In the next assay the test system is DMS53. Nature of the assay: 10-day Cell Titre Glo combination screen. To be noted: Homo sapiens, DMS-53; DMS53 lung; monotherapy; read-out: mono AC50.
Description: as §1, §2, §3, §4, §5, §6, §7, §8

Another assay relates to NCI-H1650. Nature of the assay: 10-day Cell Titre Glo combination screen. The note with it: Homo sapiens, NCI-H1650, NCI-H1650 lung; monotherapy; read-out: mono AC50.
Description: as §1, §2, §3, §4, §5, §6, §7, §8

The subject of the next assay is NCI-H322. Description: 10-day Cell Titre Glo combination screen. The note with it: NCI-H322, NCI-H322 lung; monotherapy; read-out: mono AC50.
Description: as §1, §2, §3, §4, §5, §6, §7, §8

For a further assay, the system named is NCI-H1573. Nature of the assay: 10-day Cell Titre Glo combination screen. To be noted: Homo sapiens, NCI-H1573, 240 h, NCI-H1573 lung; monotherapy; read-out: mono AC50.
Description: as §1, §2, §3, §4, §5, §6, §7, §8

In another assay the test system is NCI-H2009. Description: 10-day Cell Titre Glo combination screen. To be noted: Homo sapiens; NCI-H2009 lung; monotherapy; read-out: mono AC50.
Description: as §1, §2, §3, §4, §5, §6, §7, §8

A further assay deals with HCC1395. Nature of the assay: 10-day Cell Titre Glo combination screen. To be noted: Homo sapiens; HCC1395 breast; monotherapy; read-out: mono AC50.
Description: as §1, §2, §3, §4, §5, §6, §7, §8

In another assay the test system is HCC15. Description: 10-day Cell Titre Glo combination screen. To be noted: HCC15 lung; monotherapy; read-out: mono AC50.
Description: as §1, §2, §3, §4, §5, §6, §7, §8

In the next assay the test system is NCI-H1666. Nature of the assay: 10-day Cell Titre Glo combination screen. To be noted: Homo sapiens; NCI-H1666 lung; monotherapy; read-out: mono AC50.
Description: as §1, §2, §3, §4, §5, §6, §7, §8

For another assay, the system named is DU4475. Nature of the assay: 10-day Cell Titre Glo combination screen. The note with it: Homo sapiens, DU-4475; DU4475 breast; monotherapy; read-out: mono AC50.
Description: as §1, §2, §3, §4, §5, §6, §7, §8

In the next assay the test system is HCC1569. Description: 10-day Cell Titre Glo combination screen. To be noted: Homo sapiens; HCC1569 breast; monotherapy; read-out: mono AC50.
Description: as §1, §2, §3, §4, §5, §6, §7, §8

For another assay, the system named is NCI-H1792. Nature of the assay: 10-day Cell Titre Glo combination screen. To be noted: Homo sapiens; NCI-H1792 lung; monotherapy; read-out: mono AC50.
Description: as §1, §2, §3, §4, §5, §6, §7, §8

The test system of a further assay is NCI-H23. Description: 10-day Cell Titre Glo combination screen. The note with it: Homo sapiens; NCI-H23 lung; monotherapy; read-out: mono AC50.
Description: as §1, §2, §3, §4, §5, §6, §7, §8

Another assay deals with MCF7 T52. Nature of the assay: 10-day Cell Titre Glo combination screen. The note with it: Homo sapiens; MCF7 T52 breast; monotherapy; read-out: mono AC50.
Description: as §1, §2, §3, §4, §5, §6, §7, §8

Assay [1] relates to SUM149PT 53BP1 KO cell pools. Description: Clonogenic proliferation assay (14 days, SRB). Here is the method: (§9) Parental BRCA1 mutant SUM149PT breast cancer cell line (Elstrodt 2006) were obtained from AstraZeneca Cell Bank at Alderley Park, Macclesfield. Cells were routinely grown in Ham's F12 media containing 5% foetal calf serum, 1% glutamine (2 mM), 500 ng/ml hydrocortisone and 5% insulin. SUM149PT 53BP1 WT (CNTR) and 53BP1 null (KO) cell pools were generated by CRISPR-Cas9 technology. Short guide (sg) RNA targeting TP53BP1 on exon 10 (GAGTAGATCGGAAAGCATC) and a non-targeting CNTR guide (GAGTAGATCGGAAAGCATC) were designed and cloned into a lentiviral vector containing a mClover3 cassette for green fluorescence signal and hygromycin cassette for selection (pKLV2-U6gRNA (Bbsl)-EF1a-mClover3-T2A-HygR-W). Lentiviruses were generated from both KO and CNTR (sg) RNA and Cas9 (pKLVEF1a-Cas9Bsd-W) plasmids and parental cells were transduced first with Cas9 lentiviruses followed by blasticidin selection and then with KO and CNTR lentiviruses followed by hygromycin selection. Loss of 53BP1 was verified by analysing 53BP1 protein expression from whole cell lysates by western blotting (Novus, NB100-304, 1:1000 dilution).
(§10) Cells were seeded onto 6-well plates, three replicates per cell line, and 24 hours later the cells were dosed with AZD6738/AZD5305. For monotherapies the cells were dosed with a 6-point concentration response of AZD6738 (0 to 0.64 μM) or AZD5305 (0 to 1 μM). For combination treatments single dose of AZD5305 (10 nM) was used with a 5-point concentration response of AZD6738 (0 to 0.64 μM) for 53BP1 KO cells. Cells were grown for 14 days for colony formation without media changes. Cells were fixed with 10% TCA (Tricloroacetic acid). 14 days after dosing any formed colonies were stained with 0.057% SRB (sulforhodamine B acid), imaged with GelCount™ (Oxford OPTRONIX) at 600 dpi resolution and the stained colony growth intensity was measured using plate reader with OD @[…]. Dose response curves were generated and IC50 concentrations were calculated using GraphPad PRISM software.

Assay [2] deals with SUM149PT 53BP1 WT (CNTR) cells. Description: Clonogenic proliferation assay (14 days, SRB). To be noted: Homo sapiens; SUM149PT 53BP1 WT (CNTR); monotherapy; read-out: IC50, clonogenic growth. Here is the method: as §9, §10

Structures are written as SMILES.

Take `CCc1cc2ccc(CN3CCN(c4ncc(C)n4C)CC3)cc2[nH]c1=O` [AZ14114554, 7-((4-(1,5-dimethyl-1H-imidazol-2-yl)piperazin-1-yl)methyl)-3-ethylquinolin-2 (1H)-one]: the AC50 was 97.1 µM in the assay with PC-9; 62.2 nM in the assay with DMS53; 63.2 nM in the assay with NCI-H1650; 1.23 nM in the assay on NCI-H322; 19.6 nM with NCI-H1573; 105 nM in the assay with NCI-H2009.
Turning to `CCc1cc2ncc(CN3CCN(c4ccc(C(=O)NC)nc4)CC3)cc2[nH]c1=O` [AZD5305, 5-{4-[(7-ethyl-6-oxo-5,6-dihydro-1,5-naphthyridin-3-yl)methyl]piperazin-1-yl}-N-methylpyridine-2-carboxamide], the AC50 in the assay on HCC1395 is 5.73 nM; in the assay with HCC15, 7.7 nM; with NCI-H1573, 47.7 nM; in the assay with NCI-H1666, 9.36 nM; in the assay with DU4475, 120 nM; in the assay with HCC1569, 22.1 µM. Also, the AC50 amounted to 24.5 nM with NCI-H1792, 4.13 nM in the assay with NCI-H23 and 41.8 nM in the assay on MCF7 T52. Moreover, the “growth inhibition as monotherapy” value in assay [1] (10 nM, cell pool not given) is “does not show growth inhibition”. In addition, in assay [1] (SUM149PT 53BP1 KO, monotherapy), the “sensitivity, clonogenic growth” value is reported as “completely resistant”. Besides, the IC50 in [2] was roughly 6 nM.
